From patent publication US20250136722A1, “CYTOTOXICITY TARGETING CHIMERAS” (GLAXOSMITHKLINE INTELLECTUAL PROPERTY DEVELOPMENT LIMITED, priority 2021, published 2025)

Each molecule was assayed against T1, CHOK1 cells engineered to overexpress human CCR2 (Homo sapiens, UniProt P41597) (assay: Antibody dependent cellular cytotoxicity (ADCC) reporter assay (Example 199)). Settings: with anti-cotinine antibody SEQ ID NO: 11/12; CHOK1-human CCR2 target cells, Jurkat FcγRIIIa NFAT-luciferase reporter cells; 12-18 hours; read-out: ADCC Reporter Assay pEC50 (converted).
T1 construct: expressed in transfected cells; host or cells: CHOK1 cells
Type: cell-based
Procedure: An antibody dependent cellular cytoxicity reporter assay was conducted using the following four assay components: (i) ARM compound of Formula (I) targeting CCR2 (concentrations ranging from 1 pM to 10 μM) (ii) anti-cotinine antibody having a heavy chain sequence of SEQ ID NO: 11 and a light chain sequence of SEQ ID NO: 12 (rabbit variable region with human IgG1 Fc domain containing a DE mutation (S239D/1332E)) (concentrations ranging from 0.01 μg/mL to 200 μg/mL); (iii) target cells: CHOK1 cells engineered to overexpress either human CCR2 (typically 1000-20,000 cells per well) and (iv) reporter cells: Jurkat cells engineered to express FcγRIIIa with the reporter gene luciferase under the control of the NFAT promoter (typically 3000-75,000 cells per well). Reagents were combined in a final volume of 20 μL in a 384-well tissue culture treated plate. All four assay components were incubated together for about 12-18 hours. Thereafter, BioGlo Detection reagent (Promega) was added to the wells to lyse the cells and provide a substrate for the luciferase reporter protein. Luminescence signal was measured on a microplate reader and signal:background was calculated by dividing the signal of a test well by the signal obtained when no heterobivalent compound of Formula (I) was added. EC50 calculations were done using Graphpad Prism Software, specifically a nonlinear regression curve fit (Y=Bottom+(Top−Bottom)/(1+10^((Log EC50−X)*HillSlope))).
ARMs compounds of Formula (I) of the invention were tested for ADCC activity in the above assay in or more experimental runs and the results are shown in Table 3 below. Potency of the compounds of Formula (I) of the invention is reported as a pEC50 value. The pEC50 value is the negative log of the EC50 value, wherein the EC50 value is the half maximal effective concentration measured in molar (M). For compounds tested in more than one experimental run, the pEC50 value is reported as an average.

Compared with `CC(C)N(C)[C@@H]1CC[C@H](N2CC[C@H](Nc3ncnc4ccc(C(F)(F)F)cc34)C2=O)[C@H](NC(=O)[C@H]2CC[C@H](N3CCN(C(=O)CCOCCOCCNC(=O)[C@H]4CC(=O)N(C)[C@@H]4c4cccnc4)CC3)CC2)C1` [Example 96, (2S,3S)-N-(2-(2-(3-(4-((1R,4r)-4-(((1R,2S,5R)-5-(Isopropyl(methyl)amino)-2-((S)-2-oxo-3-((6-(trifluoromethyl)quinazolin-4-yl)amino)pyrrolidin-1-yl)cyclohexyl)carbamoyl)cyclohexyl)piperazin-1-yl)-3-oxopropoxy)ethoxy)ethyl)-1-methyl-5-oxo-2-(pyridin-3-yl)pyrrolidine-3-carboxamide], `CC(C)N(C)[C@@H]1CC[C@H](N2CC[C@H](Nc3ncnc4ccc(C(F)(F)F)cc34)C2=O)[C@H](NC(=O)[C@H]2CC[C@@H](N3CCC(C(=O)NCCOCCOCCNC(=O)[C@H]4CC(=O)N(C)[C@@H]4c4cccnc4)CC3)CC2)C1` [Example 134] is 100-fold lower in EC50: 6.31 nM for the first, 0.0631 nM for the second.

Going from `CC(C)N(C)[C@@H]1CC[C@H](N2CC[C@H](Nc3ncnc4ccc(C(F)(F)F)cc34)C2=O)[C@H](NC(=O)[C@H]2CC[C@H](N3CCN(C4CC(CCNC(=O)[C@H]5CC(=O)N(C)[C@@H]5c5cccnc5)C4)CC3)CC2)C1` (stereo partly drawn) [Example 97, (2S,3S)-N-(2-(3-(4-((1R,4S)-4-(((1R,2S,5R)-5-(Isopropyl(methyl)amino)-2-((S)-2-oxo-3-((6-(trifluoromethyl)quinazolin-4-yl)amino)pyrrolidin-1-yl)cyclohexyl)carbamoyl)cyclohexyl)piperazin-1-yl)cyclobutyl)ethyl)-1-methyl-5-oxo-2-(pyridin-3-yl)pyrrolidine-3-carboxamide] to `CC(C)N(C)[C@@H]1CC[C@H](N2CC[C@H](Nc3ncnc4ccc(C(F)(F)F)cc34)C2=O)[C@H](NC(=O)C2CCC(N3CC(C(=O)NCCOCCOCCNC(=O)[C@H]4CC(=O)N(C)[C@@H]4c4cccnc4)C3)CC2)C1` (stereo partly drawn) [Example 131], the EC50 falls from 6.31 nM to 3.16 nM (2-fold).

Going from `CN1C(=O)C[C@H](C(=O)NCCOCC(=O)NCCOCC(=O)N[C@H]2CC[C@@H](C(=O)N[C@@H]3C[C@H](NC(C)(C)C)CC[C@@H]3N3CC[C@H](Nc4ncnc5ccc(C(F)(F)F)cc45)C3=O)CC2)[C@H]1c1cccnc1` [Example 100] to `CN1C(=O)C[C@H](C(=O)NCCOCCOCCC(=O)N[C@H]2CC[C@@H](C(=O)N[C@@H]3C[C@H](NC(C)(C)C)CC[C@@H]3N3CC[C@H](Nc4ncnc5ccc(C(F)(F)F)cc45)C3=O)CC2)[C@H]1c1cccnc1` [Example 120, (2S,3S)-N-(2-(2-(3-(((1S,4s)-4-(((1R,2S,5R)-5-(tert-Butylamino)-2-((S)-2-oxo-3-((6-(trifluoromethyl)quinazolin-4-yl)amino)pyrrolidin-1-yl)cyclohexyl)carbamoyl)cyclohexyl)amino)-3-oxopropoxy)ethoxy)ethyl)-1-methyl-5-oxo-2-(pyridin-3-yl)pyrrolidine-3-carboxamide], the EC50 rises from 1.2 nM to 5.46 nM (4.5-fold).

Compared with `CC(C)N(C)[C@@H]1CC[C@H](N2CC[C@H](Nc3ncnc4ccc(C(F)(F)F)cc34)C2=O)[C@H](NC(=O)[C@H]2CC[C@@H](NC(=O)CCOCCNC(=O)CCOCCCNC(=O)[C@H]3CC(=O)N(C)[C@@H]3c3cccnc3)CC2)C1` [Example 101], `CC(C)N(C)[C@@H]1CC[C@H](N2CC[C@H](Nc3ncnc4ccc(C(F)(F)F)cc34)C2=O)[C@H](NC(=O)[C@H]2CC[C@H](NC(=O)CCO[C@H]3CC[C@@H](OCCNC(=O)[C@H]4CC(=O)N(C)[C@@H]4c4cccnc4)CC3)CC2)C1` [Example 114] is 21-fold higher in EC50: 0.278 nM for the first, 5.77 nM for the second.

Compared with `CN1C(=O)C[C@H](C(=O)NCCOCC(=O)NCCOCCC(=O)NCCOCCC(=O)N[C@@H]2C[C@H](NC(C)(C)C)CC[C@@H]2N2CC[C@H](Nc3ncnc4ccc(C(F)(F)F)cc34)C2=O)[C@H]1c1cccnc1` [Example 106], `CC(C)N(C)[C@@H]1CC[C@H](N2CC[C@H](Nc3ncnc4ccc(C(F)(F)F)cc34)C2=O)[C@H](NC(=O)CCOCCOCCNC(=O)[C@@H]2CCCN2CCOCCNC(=O)[C@H]2CC(=O)N(C)[C@@H]2c2cccnc2)C1` [Example 118, (S)-N-(2-(2-(3-(((1R,2S,5R)-5-(Isopropyl(methyl)amino)-2-((S)-2-oxo-3-((6-(trifluoromethyl)quinazolin-4-yl)amino)pyrrolidin-1-yl)cyclohexyl)amino)-3-oxopropoxy)ethoxy)ethyl)-1-(2-(2-((2S,3S)-1-methyl-5-oxo-2-(pyridin-3-yl)pyrrolidine-3-carboxamido)ethoxy)ethyl)pyrrolidine-2-carboxamide] is 7.1-fold higher in EC50: 0.558 nM for the first, 3.98 nM for the second.

Going from `CC(C)N(C)[C@@H]1CC[C@H](N2CC[C@H](Nc3ncnc4ccc(C(F)(F)F)cc34)C2=O)[C@H](NC(=O)[C@H]2C[C@H](NC(=O)CCO[C@H]3CC[C@@H](OCCNC(=O)[C@H]4CC(=O)N(C)[C@@H]4c4cccnc4)CC3)C2)C1` [Example 116] to `CC(C)N(C)[C@@H]1CC[C@H](N2CC[C@H](Nc3ncnc4ccc(C(F)(F)F)cc34)C2=O)[C@H](NC(=O)[C@H]2C[C@H](NC(=O)CCO[C@H]3CC[C@H](OCCNC(=O)[C@H]4CC(=O)N(C)[C@@H]4c4cccnc4)CC3)C2)C1` [Example 117], the EC50 falls from 5.01 nM to 0.316 nM (16-fold).

Compared with `CC(C)N(C)[C@@H]1CC[C@H](N2CC[C@H](Nc3ncnc4ccc(C(F)(F)F)cc34)C2=O)[C@H](NC(=O)c2cccc(NCCOCCOCCOCCOCCNC(=O)[C@H]3CC(=O)N(C)[C@@H]3c3cccnc3)n2)C1` [Example 123, N-((1R,2S,5R)-5-(Isopropyl(methyl)amino)-2-((S)-2-oxo-3-((6-(trifluoromethyl)quinazolin-4-yl)amino)pyrrolidin-1-yl)cyclohexyl)-6-((1-((2S,3S)-1-methyl-5-oxo-2-(pyridin-3-yl)pyrrolidin-3-yl)-1-oxo-5,8,11,14-tetraoxa-2-azahexadecan-16-yl)amino)picolinamide], `CC(C)N(C)[C@@H]1CC[C@H](N2CC[C@H](Nc3ncnc4ccc(C(F)(F)F)cc34)C2=O)[C@H](NC(=O)c2cccc(NCCOCCOCCOCCOCCOCCNC(=O)[C@H]3CC(=O)N(C)[C@@H]3c3cccnc3)n2)C1` [Example 124] is 2.5-fold lower in EC50: 5.01 nM for the first, 2 nM for the second.

First: CC(C)N(C)[C@@H]1CC[C@H](N2CC[C@H](Nc3ncnc4ccc(C(F)(F)F)cc34)C2=O)[C@H](NC(=O)c2ccc(NCCOCCOCCOCCOCCNC(=O)[C@H]3CC(=O)N(C)[C@@H]3c3cccnc3)nn2)C1 [Example 125]
Second: CC(C)N(C)[C@@H]1CC[C@H](N2CC[C@H](Nc3ncnc4ccc(C(F)(F)F)cc34)C2=O)[C@H](NC(=O)c2ccc(NCCOCCOCCOCCOCCNC(=O)[C@H]3CC(=O)N(C)[C@@H]3c3cccnc3)nc2)C1 [Example 128, N-((1R,2S,5R)-5-(Isopropyl(methyl)amino)-2-((S)-2-oxo-3-((6-(trifluoromethyl)quinazolin-4-yl)amino)pyrrolidin-1-yl)cyclohexyl)-6-((1-((2S,3S)-1-methyl-5-oxo-2-(pyridin-3-yl)pyrrolidin-3-yl)-1-oxo-5,8, 11, 14-tetraoxa-2-azahexadecan-16-yl)amino)nicotinamide]
The EC50 of the first is 3.2-fold higher: 3.16 nM for the first, 1 nM for the second.

Going from `CC(C)N(C)[C@@H]1CC[C@H](N2CC[C@H](Nc3ncnc4ccc(C(F)(F)F)cc34)C2=O)[C@H](NC(=O)c2ccnc(NCCOCCOCCOCCOCCNC(=O)[C@H]3CC(=O)N(C)[C@@H]3c3cccnc3)c2)C1` [Example 126] to `CC(C)N(C)[C@@H]1CC[C@H](N2CC[C@H](Nc3ncnc4ccc(C(F)(F)F)cc34)C2=O)[C@H](NC(=O)c2cc(NCCOCCOCCOCCOCCNC(=O)[C@H]3CC(=O)N(C)[C@@H]3c3cccnc3)ncn2)C1` [Example 127], the EC50 falls from 1.58 nM to 1 nM (1.6-fold).

`CC(C)N(C)[C@@H]1CC[C@H](N2CC[C@H](Nc3ncnc4ccc(C(F)(F)F)cc34)C2=O)[C@H](NC(=O)c2cnn(C3CCN(CCOCCOCCOCCNC(=O)[C@H]4CC(=O)N(C)[C@@H]4c4cccnc4)CC3)c2)C1` [Example 129, N-((1R,2S,5R)-5-(Isopropyl(methyl)amino)-2-((S)-2-oxo-3-((6-(trifluoromethyl)quinazolin-4-yl)amino)pyrrolidin-1-yl)cyclohexyl)-1-(1-(1-((2S,3S)-1-methyl-5-oxo-2-(pyridin-3-yl)pyrrolidin-3-yl)-1-oxo-5,8,11-trioxa-2-azatridecan-13-yl)piperidin-4-yl)-1H-pyrazole-4-carboxamide] and `CC(C)N(C)[C@@H]1CC[C@H](N2CC[C@H](Nc3ncnc4ccc(C(F)(F)F)cc34)C2=O)[C@H](NC(=O)c2ccc([C@H]3CC[C@@H](C(=O)NCCOCCOCCNC(=O)[C@H]4CC(=O)N(C)[C@@H]4c4cccnc4)CC3)cc2)C1` [Example 133] are the same in EC50: 5.01 nM for the first, 5.01 nM for the second.

`CC(C)N(C)[C@@H]1CC[C@H](N2CC[C@H](Nc3ncnc4ccc(C(F)(F)F)cc34)C2=O)[C@H](NC(=O)[C@H]2CC[C@@H](N3CCC(C(=O)NCCOCCOCCNC(=O)[C@H]4CC(=O)N(C)[C@@H]4c4cccnc4)C(F)(F)C3)CC2)C1` (stereo partly drawn) [Example 132] gave an EC50 of 3.16 nM.
